pIC50: −log10 of the molar value. Activity calls are given as the source filed them. The calls are words filed in the database; no cut-off is given here.
Assays:
[1] = Cytotoxicity against HEK293 cells transfected with pcDNA3.1 assessed as inhibition of cell viability at 5 to 25 uM incubated for 2 by MTT assay relative to control; format: cell-based; conditions: human, read-out: INH
[2] = biological target: T1, Broad substrate specificity ATP-binding cassette transporter ABCG2 (Homo sapiens, UniProt Q9UNQ0); test: Reversal of ABCG2-mediated multidrug resistance in human NCI-H460/MX20 cells assessed as potentiation of mitoxantrone-induced cytotoxicity at 2.5 to 5 uM pretreated with compound for 2 hrs followed by mitoxantrone challenge for 44 hrs by MTT assay; format: cell-based
T1 sequence (Q9UNQ0 whole entry): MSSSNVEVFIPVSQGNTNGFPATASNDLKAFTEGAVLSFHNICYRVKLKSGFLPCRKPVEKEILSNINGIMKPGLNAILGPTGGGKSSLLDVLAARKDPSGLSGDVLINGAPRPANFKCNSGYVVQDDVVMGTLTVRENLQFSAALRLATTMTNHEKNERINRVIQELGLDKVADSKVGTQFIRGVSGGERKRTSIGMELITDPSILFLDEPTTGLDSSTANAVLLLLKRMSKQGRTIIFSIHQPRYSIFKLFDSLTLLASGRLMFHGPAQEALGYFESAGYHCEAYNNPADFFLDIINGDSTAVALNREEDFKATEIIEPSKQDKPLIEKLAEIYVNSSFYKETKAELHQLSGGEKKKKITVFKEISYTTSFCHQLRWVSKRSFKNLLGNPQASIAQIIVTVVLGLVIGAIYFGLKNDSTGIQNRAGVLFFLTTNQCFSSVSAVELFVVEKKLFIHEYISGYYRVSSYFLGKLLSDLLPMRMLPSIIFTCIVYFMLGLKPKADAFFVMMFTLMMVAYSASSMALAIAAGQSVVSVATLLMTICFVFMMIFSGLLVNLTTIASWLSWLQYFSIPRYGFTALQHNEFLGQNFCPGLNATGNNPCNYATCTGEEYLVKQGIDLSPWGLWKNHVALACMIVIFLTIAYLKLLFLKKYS

[3] = Cytotoxicity against human NCI-H460 cells assessed as inhibition of cell viability at 5 to 25 uM incubated for 2 hrs by MTT assay relative to control; format: cell-based; conditions: read-out: INH
HEK293 [4] = test: Reversal of ABCG2 482-T7 mutant (unknown origin) expressed in HEK293 cells-mediated multidrug resistance assessed as potentiation of mitoxantrone-induced cytotoxicity at 2.5 to 5 uM pretreated for 2 hrs followed by mitoxantrone addition and measured after 44 hrs by MTT assay; format: cell-based; conditions: Homo sapiens
HEK293 [5] = test: Reversal of ABCG2 482-G2 mutant (unknown origin) expressed in HEK293 cells-mediated multidrug resistance assessed as potentiation of mitoxantrone-induced cytotoxicity at 2.5 to 5 uM pretreated for 2 hrs followed by mitoxantrone addition and measured after 44 hrs by MTT assay; format: cell-based; conditions: Homo sapiens
[6] = biological target: T1, Broad substrate specificity ATP-binding cassette transporter ABCG2; test: Reversal of ABCG2 (unknown origin) expressed in HEK293 cells-mediated multidrug resistance assessed as potentiation of mitoxantrone-induced cytotoxicity at 2.5 to 5 uM pretreated for 2 hrs followed by mitoxantrone addition and measured after 44 hrs by MTT assay; format: cell-based; conditions: hek293, 44 h
[7] = biological target: T1, Broad substrate specificity ATP-binding cassette transporter ABCG2; test: Inhibition of ABCG2-mediated mitoxantrone efflux in human NCI-H460/MX20 cells assessed as increase in accumulation of [3H]MX at 5 uM incubated for 2 hrs followed by [3H]MX addition further incubated for 2 hrs by liquid scintillation counter relative to control; format: cell-based
[8] = biological target: T1, Broad substrate specificity ATP-binding cassette transporter ABCG2; test: (§1) Reversal of ABCG2-mediated multidrug resistance in human NCI-H460/MX20 cells assessed as potentiation of mitoxantrone-induced cytotoxicity by measuring inhibition of cell proliferation pretreated for 2 hrs followed by mitoxantrone addition and measured after 44 hrs by MTT assay; format: cell-based
[9] = biological target: T1, Broad substrate specificity ATP-binding cassette transporter ABCG2; test: Reversal of ABCG2-mediated multidrug resistance in human S1-M1-80 cells assessed as potentiation of mitoxantrone-induced cytotoxicity at 5 uM pretreated with compound for 2 hrs followed by mitoxantrone challenge for 44 hrs by MTT assay; format: cell-based
[10] = biological target: T1, Broad substrate specificity ATP-binding cassette transporter ABCG2; test: Reversal of ABCG2-mediated multidrug resistance in human NCI-H460/MX20 cells assessed as cisplatin-induced cytotoxicity at 5 uM pretreated with compound for 2 hrs followed by cisplatin challenge for 44 hrs by MTT assay; format: cell-based
[11] = Cytotoxicity against human S1-M1-80 cells assessed as inhibition of cell viability at 5 to 25 uM incubated for 2 hrs by MTT assay relative to control; format: cell-based; conditions: read-out: INH
[12] = Cytotoxicity against human S1 cells assessed as inhibition of cell viability at 5 to 25 uM incubated for 2 hrs by MTT assay relative to control; format: cell-based; conditions: read-out: INH
[13] = biological target: T1, Broad substrate specificity ATP-binding cassette transporter ABCG2; test: Competitive substrate activity at ABCG2 (unknown origin) expressed in High Five insect cell vesicle membrane assessed as stimulation of ATPase activity up to 40 uM by PREDEASY ATPase assay relative to control
[14] = Cytotoxicity against human NCI-H460/MX20 cells assessed as inhibition of cell viability incubated for 2 hrs by MTT assay; format: cell-based; conditions: NCI-H460/MX20, 2 h
Homo sapiens [15] = species on record: Homo sapiens; test: Effect on ABCG2 expression in human NCI-H460/MX20 cells at 5 uM incubated up to 72 hrs by Western blot analysis; format: functional, cell-based
NCI-H460 [16] = test: Cytotoxicity against human NCI-H460 cells assessed as inhibition of cell viability incubated for 2 hrs by MTT assay; format: cell-based; conditions: NCI-H460, 2 h, read-out: IC50
Homo sapiens [17] = species on record: Homo sapiens; test: Effect on ABCG2 internalization in human NCI-H460/MX20 cells at 5 uM incubated for 72 hrs by immunofluorescence analysis; format: functional, cell-based
[18] = Metabolic stability in human liver microsomes assessed as compound remaining at 100 uM incubated for 1 hr by HPLC analysis; format: ADME, Microsome; conditions: read-out: Stability
[19] = Cytotoxicity against HEK293 cells harbouring ABCG2-482-G2 mutant assessed as inhibition of cell viability at 5 to 25 uM incubated for 2 hrs by MTT assay relative to control; format: ADME, cell-based; conditions: human, read-out: INH
[20] = biological target: T1, Broad substrate specificity ATP-binding cassette transporter ABCG2; test: as §1, with “proliferation at 10 uM” for “proliferation”, “assay (reference value: 24 +/- 3%)” for “assay”; format: cell-based
[21] = biological target: T1, Broad substrate specificity ATP-binding cassette transporter ABCG2; test: Reversal of ABCG2-mediated multidrug resistance in human S1-M1-80 cells assessed as potentiation of doxorubicin-induced cytotoxicity at 5 uM pretreated with compound for 2 hrs followed by doxorubicin challenge for 44 hrs by MTT assay; format: cell-based
[22] = Cytotoxicity against human NCI-H460/MX20 cells assessed as inhibition of cell viability at 5 to 25 uM incubated for 2 hrs by MTT assay relative to control; format: cell-based; conditions: read-out: INH
[23] = Cytotoxicity against HEK293 cells expressing wild type ABCG2-482-R2 assessed as inhibition of cell viability at 5 to 25 uM incubated for 2 hrs by MTT assay relative to control; format: ADME, cell-based; conditions: human, read-out: INH
[24] = biological target: T1, Broad substrate specificity ATP-binding cassette transporter ABCG2; test: Competitive substrate activity at ABCG2 (unknown origin) expressed in High Five insect cell vesicle membrane assessed as stimulation of ATPase activity by PREDEASY ATPase assay
[25] = Cytotoxicity against human NCI-H460/MX20 cells assessed as concentration that causes inhibition of cell viability by <=20% incubated for 24 hrs by MTT assay; format: cell-based
[26] = Cytotoxicity against HEK293 cells harbouring ABCG2-482-T7 mutant assessed as inhibition of cell viability at 5 to 25 uM incubated for 2 hrs by MTT assay relative to control; format: ADME, cell-based; conditions: human, read-out: INH
NCI-H460 [27] = test: Cytotoxicity against human NCI-H460 cells assessed as concentration that causes inhibition of cell viability by <=20% incubated for 24 hrs by MTT assay; format: cell-based; conditions: nci-h460, 24 h
ABCG2 = biological target: T2, ABCG2 (Homo sapiens, UniProt Q9UNQ0); test: Competitive substrate activity at ABCG2 (unknown origin) expressed in High Five insect cell vesicle membrane assessed as stimulation of ATPase activity at 0.75 uM by PREDEASY ATPase assay relative to control; conditions: High Five insect cell vesicle membranes expressing ABCG2
T2 sequence (Q9UNQ0 whole entry): T1 sequence (Q9UNQ0 whole entry)

## COc1ccc(C(=O)c2c[nH]c3ccc(OC)cc23)cc1
[1]
  cytotoxicity at up to 25 µM: < 20%
[2]
  Activity: Active
[3]
  cytotoxicity at 2 h, up to 25 µM: < 20%
HEK293 [4]
  Activity: Active
HEK293 [5]
  Activity: Active
[6]
  Activity: Active
[7]
  fold change (FC): 2.7
[8]
  inhibition (INH): Dose-dependent effect
[9]
  Activity: Active
[10]
  Activity: Not Active
[11]
  cytotoxicity at 2 h, up to 25 µM: < 20%
[12]
  cytotoxicity at 2 h, up to 25 µM: < 20%
[13]
  fold change (FC): 2.03
[14]
  pIC50: 4.17
Homo sapiens [15]
  Activity: inactive
NCI-H460 [16]
  pIC50: < 4.00
Homo sapiens [17]
  Activity: inactive
[18]
  remaining at 1 h, 100 µM: 78%
[19]
  cytotoxicity at 2 h, up to 25 µM: < 20%
[20]
  inhibition at 10 µM: > 87%
[21]
  Activity: Active
[22]
  cytotoxicity at 2 h, up to 25 µM: < 20%
[23]
  cytotoxicity at 2 h, up to 25 µM: < 20%
[24]
  Activity: Dose-dependent effect
[25]
  Activity: 10 µM
[26]
  cytotoxicity at 2 h, up to 25 µM: < 20%
NCI-H460 [27]
  Activity: 10 µM
ABCG2
  Emax at 0.75 µM: 50%
